Experimental data taken from PMC3292874 (Bioconjugate Chemistry, 2011).

Target: PC-PLC (phosphatidylcholine-specific phospholipase C) (Bacillus cereus, UniProt P09598)
Test: fluorescence of dequenched Pyro-PtdEtn-BHQ hydrolysis, initial rate
Type: biochemical

PC-PLC (phosphatidylcholine-specific phospholipase C), sequence (P09598 39-283 limits assumed): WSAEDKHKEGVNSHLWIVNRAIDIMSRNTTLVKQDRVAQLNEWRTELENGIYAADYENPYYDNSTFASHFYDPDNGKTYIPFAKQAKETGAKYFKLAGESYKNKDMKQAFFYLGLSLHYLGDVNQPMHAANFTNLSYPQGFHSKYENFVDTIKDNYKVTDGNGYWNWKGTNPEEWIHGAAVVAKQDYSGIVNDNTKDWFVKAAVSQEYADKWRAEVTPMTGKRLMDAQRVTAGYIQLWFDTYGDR

`S=C(S)OC1CC2CC1C1CCCC21` (stereo not shown) [D609] showed an IC50 of 34 ± 8 µM.
